The target of experiment [1] is T1, human CSNK1D (Homo sapiens, UniProt P48730).
T1 construct: expressed in transfected cells
Nature of the experiment: Whole Cell nBRET CSNK1D Binding Assay. To be noted: living CHO cells stably expressing human CSNK1D tagged with nanoluciferase; NanoBret tracer 130 nM; 2 hours at 37 C.

For experiment [2], the target named is T2, human recombinant GST cleaved CSNK1D (Homo sapiens, UniProt P48730).
T2 construct: GST (cleaved yes); purchased University of Dundee clone DU 19064
The experiment is described as follows: Purified Enzyme Assay (ADP-Glo CSNK1D Kinase Assay). The experiment is classed as biochemical. Conditions: 2 nM CSNK1D; peptide substrate 150 μM; ATP 20 μM; 45 minutes at room temperature. A digest of the protocol:
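GST-cleaved human recombinant CSNK1D phosphorylates peptide PLSRTL-pS-VASLPGL with ATP; compounds added in dose-response, 45 min at room temperature. ADP formed measured by ADP-Glo luminescence and converted to percent activity.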
(ADP-Glo turns the ADP formed in a reaction into a luminescent signal.)

Each structure is given as a SMILES string. Bounds are passed on as bounds.

T1 sequence (P48730 whole entry): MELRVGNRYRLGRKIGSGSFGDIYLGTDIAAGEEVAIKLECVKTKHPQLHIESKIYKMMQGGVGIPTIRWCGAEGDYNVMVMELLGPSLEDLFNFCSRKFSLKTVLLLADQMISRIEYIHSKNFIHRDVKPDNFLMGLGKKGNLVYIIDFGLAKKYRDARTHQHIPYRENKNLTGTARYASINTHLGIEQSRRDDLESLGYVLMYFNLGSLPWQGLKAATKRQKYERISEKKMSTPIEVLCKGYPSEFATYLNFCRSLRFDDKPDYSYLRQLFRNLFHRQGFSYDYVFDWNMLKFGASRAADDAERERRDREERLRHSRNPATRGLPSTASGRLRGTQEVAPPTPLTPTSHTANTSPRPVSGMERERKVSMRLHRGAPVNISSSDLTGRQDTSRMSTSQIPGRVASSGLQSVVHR
T2 sequence (P48730 whole entry): as above

For `C[C@@]1(CF)CCc2c(-c3c(F)cnc4[nH]ncc34)c(-c3ccc(F)cn3)nn2C1` (single isomer, unassigned) [Example 292, (*R)-5-Fluoro-4-[6-(fluoromethyl)-2-(5-fluoro-2-pyridyl)-6-methyl-5,7-dihydro-4H-pyrazolo[1,5-a]pyridin-3-yl]-1H-pyrazolo[3,4-b]pyridine], the IC50 in experiment [1] stood at 21 nM; in experiment [2] it was 3 nM.
The matching figures for `C[C@@H]1OCc2c(-c3ccnc4[nH]ncc34)c(-c3ccc(F)cc3)nn2[C@@H]1C` (single isomer, unassigned) [Example 113, (6*S,7*R)-2-(4-Fluorophenyl)-6,7-dimethyl-3-(1H-pyrazolo[3,4-b]pyridin-4-yl)-6,7-dihydro-4H-pyrazolo[5,1-c][1,4]oxazine]: 113 nM and 10 nM.
With `CC1(C)Cc2c(-c3cc(C(F)F)nc4[nH]ncc34)c(-c3ccc(F)cn3)nn2C1` [Example 239, 6-(Difluoromethyl)-4-[2-(5-fluoro-2-pyridyl)-5,5-dimethyl-4,6-dihydropyrrolo[1,2-b]pyrazol-3-yl]-1H-pyrazolo[3,4-b]pyridine], the values for the IC50 in experiment [1] and in experiment [2] were 115 nM and 4 nM, respectively.
On to `Cc1cc(-c2c(-c3ccc(F)cn3)nn3c2CO[C@](C)(C(F)(F)F)C3)c2cn[nH]c2n1` (single isomer, unassigned) [Example 179, (*S)-2-(5-Fluoropyridin-2-yl)-6-methyl-3-(6-methyl-1H-pyrazolo[3,4-b]pyridin-4-yl)-6-(trifluoromethyl)-6,7-dihydro-4H-pyrazolo[5,1-c][1,4]oxazine], for which the IC50 stood at 15 nM in experiment [1] and 3 nM in experiment [2].
In the case of `Cc1cc(-c2c(-c3cncc(F)c3)nn3c2COCC3)c2cn[nH]c2n1` [Example 77, 2-(5-Fluoro-3-pyridyl)-3-(6-methyl-1H-pyrazolo[3,4-b]pyridin-4-yl)-6,7-dihydro-4H-pyrazolo[5,1-c][1,4]oxazine], the IC50 in experiment [1] amounted to 2320 nM; in experiment [2] it was 116 nM.
Turning to `CC1(C)COc2c(-c3ccnc4cn[nH]c34)c(-c3ccc(F)cc3)nn2C1` [Example 453, 2-(4-Fluorophenyl)-6,6-dimethyl-3-(1H-pyrazolo[4,3-b]pyridin-7-yl)-5,7-dihydropyrazolo[5,1-b][1,3]oxazine], the IC50 in experiment [1] worked out at 11 nM; in experiment [2], 2 nM.
For `Cc1cc(-c2c(-c3ccc(F)cn3)nn3c2OC(C)CC3C)c2cn[nH]c2n1` (single isomer, unassigned) [Example 207, (5*R,7*S)-2-(5-Fluoro-2-pyridyl)-5,7-dimethyl-3-(6-methyl-H-pyrazolo[3,4-b]pyridin-4-yl)-6,7-dihydro-5H-pyrazolo[5,1-b][1,3]oxazine], the IC50 in experiment [1] amounted to 1770 nM; in experiment [2] it was 51 nM.
Take `Fc1ccc(-c2nn3c(c2-c2ccnc4[nH]c(C(F)F)cc24)COCC3)nc1` [Example 75, 3-(2-(Difluoromethyl)-1H-pyrrolo[2,3-b]pyridin-4-yl)-2-(5-fluoropyridin-2-yl)-6,7-dihydro-4H-pyrazolo[5,1-c][1,4]oxazine]: the values for the IC50 in experiment [1] and in experiment [2] were > 10000 nM and 15 nM, respectively.
As for `[2H]C([2H])([2H])C1(C([2H])([2H])[2H])Cn2nc(-c3ccc(F)cn3)c(-c3c(Cl)c(C)nc4[nH]ncc34)c2CO1` [Example 407, 3-(5-Chloro-6-methyl-1H-pyrazolo[3,4-b]pyridin-4-yl)-2-(5-fluoropyridin-2-yl)-6,6-bis(methyl-d3)-6,7-dihydro-4H-pyrazolo[5,1-c][1,4]oxazine], the values for the IC50 in experiment [1] and in experiment [2] were 219 nM and 25 nM, respectively.
With `C[C@@H]1CCc2c(-c3ccnc4[nH]ncc34)c(-c3ccc(F)cn3)nn21` [Example 20, 4-[(6R)-2-(5-Fluoro-2-pyridyl)-6-methyl-5,6-dihydro-4H-pyrrolo[1,2-b]pyrazol-3-yl]-1H-pyrazolo[3,4-b]pyridine], the figures for the IC50 in experiment [1] and in experiment [2] were 411 nM and 20 nM, respectively.
For the compound `Cc1cc(-c2c(-c3ccc(F)cc3)nn3c2CO[C@H](C)C3)c2cn[nH]c2n1` (single isomer, unassigned) [Example 84, (*R)-2-(4-Fluorophenyl)-6-methyl-3-(6-methyl-1H-pyrazolo[3,4-b]pyridin-4-yl)-6,7-dihydro-4H-pyrazolo[5,1-c][1,4]oxazine], the IC50 in experiment [1] was found to be 25 nM; in experiment [2], 1 nM.
The matching figures for `Cc1nc2[nH]ncc2c(-c2c(-c3ccc(F)cn3)nn3c2CC[C@]2(C3)CC2(F)F)c1F` (single isomer, unassigned) [Example 332, (*R)-2,2-Difluoro-3′-(5-fluoro-6-methyl-1H-pyrazolo[3,4-b]pyridin-4-yl)-2′-(5-fluoropyridin-2-yl)-4′,5′-dihydro-7′H-spiro[cyclopropane-1,6′-pyrazolo[1,5-a]pyridine]]: 12 nM and 1 nM.
Take `COCC1(F)CCc2c(-c3c(F)c(C)nc4[nH]ncc34)c(-c3ccc(F)cn3)nn2C1` (single isomer, unassigned) [Example 308, (*S)-5-Fluoro-4-[6-fluoro-2-(5-fluoro-2-pyridyl)-6-(methoxymethyl)-5,7-dihydro-4H-pyrazolo[1,5-a]pyridin-3-yl]-6-methyl-1H-pyrazolo[3,4-b]pyridine]: the half-maximal inhibitory concentration (IC50) in experiment [1] was 34 nM; in experiment [2] it was 6 nM.
Turning to `Cc1cc(-c2c(-c3ccc(F)cc3)nn3c2C[C@@]2(C3)CC2(F)F)c2cn[nH]c2n1` (single isomer, unassigned) [Example 252, (*S)-1′,1′-Difluoro-2-(4-fluorophenyl)-3-(6-methyl-1H-pyrazolo[3,4-b]pyridin-4-yl)spiro[4,6-dihydropyrrolo[1,2-b]pyrazole-5,2′-cyclopropane]], the IC50 came to 3 nM in experiment [1] and 2 nM in experiment [2].
Consider `Cc1nc(-c2nn3c(c2-c2ccnc4[nH]ncc24)COC(C)(C)C3)ccc1Cl` [Example 163, 2-(5-Chloro-6-methylpyridin-2-yl)-6,6-dimethyl-3-(1H-pyrazolo[3,4-b]pyridin-4-yl)-6,7-dihydro-4H-pyrazolo[5,1-c][1,4]oxazine], for which the figures for the IC50 in experiment [1] and in experiment [2] were 1920 nM and 59 nM, respectively.
Take `Cc1n[nH]c2nc(C(F)F)cc(-c3c(-c4ccc(F)cc4)nn4c3COC(C(F)(F)F)C4)c12` (single isomer, unassigned) [Example 374, (*S)-3-[6-(Difluoromethyl)-3-methyl-1H-pyrazolo[3,4-b]pyridin-4-yl]-2-(4-fluorophenyl)-6-(trifluoromethyl)-6,7-dihydro-4H-pyrazolo[5,1-c][1,4]oxazine]: the IC50 in experiment [1] is > 10000 nM; in experiment [2] it was 293 nM.
The corresponding values for `CC1(C)COc2c(-c3ccnc4cc[nH]c34)c(-c3ccc(F)cn3)nn2C1` [Example 450, 2-(5-Fluoro-2-pyridyl)-6,6-dimethyl-3-(1H-pyrrolo[3,2-b]pyridin-7-yl)-5,7-dihydropyrazolo[5,1-b][1,3]oxazine] are 1050 nM and 75 nM.
With `[2H]C([2H])([2H])C1(C([2H])([2H])[2H])CCc2c(-c3ccnc4[nH]ncc34)c(-c3ccc(F)cn3)nn2C1` [Example 283, 4-(2-(5-fluoropyridin-2-yl)-6,6-bis(methyl-d3)-4,5,6,7-tetrahydropyrazolo[1,5-a]pyridin-3-yl)-1H-pyrazolo[3,4-b]pyridine], the values for the IC50 in experiment [1] and in experiment [2] were 7 nM and 2 nM, respectively.
On to `CC1(C)CCc2c(-c3ccnc(N)c3)c(-c3ccc(F)cn3)nn2C1` [Example 281, 4-[2-(5-Fluoro-2-pyridyl)-6,6-dimethyl-5,7-dihydro-4H-pyrazolo[1,5-a]pyridin-3-yl]pyridin-2-amine], for which the IC50 came out at 54 nM in experiment [1] and 4 nM in experiment [2].
Consider `Cc1n[nH]c2ncc(F)c(-c3c(-c4ccc(F)cn4)nn4c3CC[C@@H]3C[C@@H]34)c12` (single isomer, unassigned) [Example 345, (5a*R,6a*S)-3-(5-Fluoro-3-methyl-1H-pyrazolo[3,4-b]pyridin-4-yl)-2-(5-fluoropyridin-2-yl)-5,5a,6,6a-tetrahydro-4H-cyclopropa[e]pyrazolo[1,5-a]pyridine], for which the figures for the IC50 in experiment [1] and in experiment [2] were 368 nM and 34 nM, respectively.
For `Fc1ccc(-c2nn3c(c2-c2ccnc4[nH]ncc24)OCCCC3)cc1` [Example 216, 2-(4-Fluorophenyl)-3-(1H-pyrazolo[3,4-b]pyridin-4-yl)-5,6,7,8-tetrahydropyrazolo[5,1-b][1,3]oxazepane], the IC50 in experiment [1] was found to be 38 nM; in experiment [2] it was 2 nM.
Regarding `Cc1cc(-c2c(-c3ccc(F)cn3)nn3c2CCC2CC23)c2cn[nH]c2n1` (racemic) [Example 57, (Racemic) 2-(5-Fluoropyridin-2-yl)-3-(6-methyl-1H-pyrazolo[3,4-b]pyridin-4-yl)-5,5a,6,6a-tetrahydro-4H-cyclopropa[e]pyrazolo[1,5-a]pyridine], the figures for the IC50 in experiment [1] and in experiment [2] were 57 nM and 6 nM, respectively.
The corresponding values for `Cc1cc(-c2c(-c3ccc(F)cc3)nn3c2COC(C)(C)C3)c2cn[nH]c2n1` [Example 145, 2-(4-Fluorophenyl)-6,6-dimethyl-3-(6-methyl-1H-pyrazolo[3,4-b]pyridin-4-yl)-6,7-dihydro-4H-pyrazolo[5,1-c][1,4]oxazine] are 4 nM and 1 nM.
As for `Nc1cc(-c2c(-c3ccc(F)cc3)nn3c2C[C@H](F)C3)ccn1` [Example 10, (S)-4-(5-Fluoro-2-(4-fluorophenyl)-5,6-dihydro-4H-pyrrolo[1,2-b]pyrazol-3-yl)pyridin-2-amine], the IC50 in experiment [1] came out at 14 nM; in experiment [2] it was 1 nM.
The corresponding values for `[2H]C([2H])([2H])C1(C([2H])([2H])[2H])Cc2c(-c3c(F)cnc4[nH]ncc34)c(-c3ccc(F)cn3)nn2C1` [Example 243, 5-Fluoro-4-[2-(5-fluoro-2-pyridyl)-5,5-bis(methyl-d3)-4,6-dihydropyrrolo[1,2-b]pyrazol-3-yl]-1H-pyrazolo[3,4-b]pyridine] are 49 nM and 3 nM.

One may read the IC50 as the concentration that gives 50% inhibition.

Source of the values: patent US20230339970A1, “CASEIN KINASE 1 DELTA MODULATORS” (priority 2020, published 2023).
